This passage reports melting point results from patent publication US20080269170A1, “Novel 2,4-Dianilinopyrimidine Derivatives, the Preparation Thereof, Their Use as Medicaments, Pharmaceutical Compositions and, in Particular, as IKK Inhibitors” (sanofi-aventis, priority 2005, published 2008).

Regarding `CN(C1CCN(CCC(F)(F)F)CC1)S(=O)(=O)c1ccc(Nc2nccc(Nc3ccc(F)c(F)c3)n2)cc1` [Example 109, 4-({4-[(3,4-Difluorophenyl)amino]pyrimidin-2-yl}amino)-N-methyl-N-[1-(3,3,3-trifluoro-propyl)piperidin-4-yl]benzenesulfonamide], the melting point (commonly the temperature of the solid-liquid transition) was in the range of 202 to 203 °C. The compound `Cc1cc(Nc2ccnc(Nc3ccc(S(=O)(=O)N(C)C4CCN(Cc5cccn5C)CC4)cc3)n2)ccc1F` [Example 110, 4-({4-[(4-Fluoro-3-methylphenyl)amino]-pyrimidin-2-yl}amino)-N-methyl-N-{1-[(1-methyl-1H-pyrrol-2-yl)methyl]piperidin-4-yl}benzenesulfonamide] showed a melting point of 159 to 160 °C. `Cc1cc(Nc2ccnc(Nc3ccc(S(=O)(=O)N(C)C4CCN(Cc5cc[nH]c5)CC4)cc3)n2)ccc1F` [Example 111, 4-({4-[(4-Fluoro-3-methylphenyl)amino]-pyrimidin-2-yl}amino)-N-methyl-N-{1-[(1H-pyrrol-3-yl)-methyl]piperidin-4-yl}benzenesulfonamide] returned a melting point of 134 to 139 °C.

`CN(C1CCN(CC(F)(F)F)CC1)S(=O)(=O)c1ccc(Nc2nccc(Nc3ccc(F)cc3)n2)cc1` [Example 112, 4-({4-[(4-Fluorophenyl)amino]pyrimidin-2-yl}amino)-N-methyl-N-[1-(2,2,2-trifluoroethyl)piperidin-4-yl]benzenesulfonamide] yielded a melting point of 201 to 202 °C.

Consider `CN(C1CCSCC1)S(=O)(=O)c1ccc(Nc2nccc(Nc3ccc(F)cc3)n2)cc1` [Example 113, 4-({4-[(4-Fluorophenyl)amino]pyrimidin-2-yl}amino)-N-methyl-N-(tetrahydro-2H-thiopyran-4-yl)-benzenesulfonamide], for which the melting point amounted to 181.5 °C. As for `CN(C)CCN(C1CCS(=O)(=O)C1)S(=O)(=O)c1ccc(Nc2nccc(Nc3ccc(F)cc3)n2)cc1` (centres unmarked) [Example 114, N-[2-(Dimethylamino)ethyl]-N-(1,1-dioxido-tetrahydro-3-thienyl)-4-({4-[(4-fluorophenyl)amino]-pyrimidin-2-yl}amino)benzenesulfonamide], the melting point lay within 162 to 165 °C.

With `CN(C1CCC(=O)CC1)S(=O)(=O)c1ccc(Nc2nccc(Nc3ccc(F)cc3)n2)cc1` [Example 118, 4-({4-[(4-Fluorophenyl)amino]pyrimidin-2-yl}amino)-N-methyl-N-(4-oxocyclohexyl)benzenesulfonamide], the melting point was determined as 203 °C. The same measure for `O=S(=O)(c1ccc(Nc2nccc(Nc3ccc(F)cc3)n2)cc1)N(CCN1CCCC1)[C@H]1CC[C@H](O)CC1` [Example 119, 4-({4-[(4-Fluorophenyl)amino]pyrimidin-2-yl}amino)-N-(trans-4-hydroxycyclohexyl)-N-(2-pyrrolidin-1-ylethyl)benzenesulfonamide]: 135.2 °C; for `CN(C1CCC(O)CC1)S(=O)(=O)c1ccc(Nc2nccc(Nc3ccc(F)cc3)n2)cc1` (centres unmarked) [Example 120, 4-({4-[(4-Fluorophenyl)amino]pyrimidin-2-yl}amino)-N-(4-hydroxycyclohexyl)-N-methylbenzene-sulfonamide]: 203 °C; for `CNC1CCC(N(C)S(=O)(=O)c2ccc(Nc3nccc(Nc4ccc(F)cc4)n3)cc2)CC1` (stereo not drawn) [Example 121, 4-({4-[(4-Fluorophenyl)amino]pyrimidin-2-yl}amino)-N-methyl-N-[4-cis(methylamino)cyclohexyl]-benzenesulfonamide]: 192 °C. `CNC1CCC(N(C)S(=O)(=O)c2ccc(Nc3nccc(Nc4ccc(F)cc4)n3)cc2)CC1` (stereo not drawn) [Example 122, 4-({4-[(4-Fluorophenyl)amino]pyrimidin-2-yl}amino)-N-methyl-N-[4-trans(methylamino)cyclohexyl]-benzenesulfonamide] came in with a melting point of 195 °C.

With `CCSCCN1CCC(NS(=O)(=O)c2ccc(Nc3nccc(Nc4ccc(F)cc4)n3)cc2)CC1` [Example 125, N-{1-[2-(Ethylthio)ethyl]piperidin-4-yl}-4-({4-[(4-fluorophenyl)amino]pyrimidin-2-yl}amino)-benzenesulfonamide], the melting point was found to be 194 °C. `CS(=O)(=O)CCN1CCC(NS(=O)(=O)c2ccc(Nc3nccc(Nc4ccc(F)cc4)n3)cc2)CC1` [Example 126, 4-({4-[(4-Fluorophenyl)amino]pyrimidin-2-yl}amino)-N-{1-[2-(methylsulfonyl)ethyl]piperidin-4-yl}benzenesulfonamide] gave a melting point of 183 °C. In the case of `COCCN(C1CCS(=O)(=O)C1)S(=O)(=O)c1ccc(Nc2nccc(Nc3ccc(F)cc3)n2)cc1` (centres unmarked) [Example 127, 4-[[4-[(4-Fluorophenyl)amino]-2-pyrimidin-yl]amino]-N-(2-methoxyethyl)-N-(tetrahydro-1,1-dioxido-3-thienyl)benzenesulfonamide], the melting point was 150 °C. The compound `C=CCN(C1CCN(C)CC1)S(=O)(=O)c1ccc(Nc2nccc(Nc3ccc(F)cc3)n2)cc1` [Example 128, 4-({4-[(4-Fluorophenyl)amino]pyrimidin-2-yl}amino)-N-allyl-N-(1-methylpiperidin-4-yl)benzene-sulfonamide] registered a melting point of 167 °C. The same measure for `Cc1cc(Nc2ccnc(Nc3ccc(S(=O)(=O)N(C)C4CCN(CCS(C)(=O)=O)CC4)cc3)n2)ccc1F` [Example 129, 4-({4-[(4-Fluoro-3-methylphenyl)amino]-pyrimidin-2-yl}amino)-N-methyl-N-{1-[2-(methyl-sulfonyl)ethyl]piperidin-4-yl}benzenesulfonamide]: 114.5 °C; for `CCCN(C1CCN(C)CC1)S(=O)(=O)c1ccc(Nc2nccc(Nc3ccc(F)cc3)n2)cc1` [Example 130, 4-({4-[(4-Fluorophenyl)amino]pyrimidin-2-yl}amino)-N-propyl-N-(1-methylpiperidin-4-yl)benzene-sulfonamide]: 232 °C; for `Cc1cc(Nc2ccnc(Nc3ccc(S(=O)(=O)N(C)C4CCN(Cc5nccs5)CC4)cc3)n2)ccc1F` [Example 131, 4-({4-[(4-Fluoro-3-methylphenyl)amino]-pyrimidin-2-yl}amino)-N-methyl-N-{1-[(1-thiazol-2-yl)-methyl]piperidin-4-yl}benzenesulfonamide]: 176 to 177 °C. Consider `Cc1cc(Nc2ccnc(Nc3ccc(S(=O)(=O)N(C)C4CCN(Cc5cncs5)CC4)cc3)n2)ccc1F` [Example 132, 4-({4-[(4-Fluoro-3-methylphenyl)amino]-pyrimidin-2-yl}amino)-N-methyl-N-{1-[(1-thiazol-5-yl)-methyl]piperidin-4-yl}benzenesulfonamide], for which the melting point was 196 to 197 °C. The same measure for `Cc1cc(Nc2ccnc(Nc3ccc(S(=O)(=O)N(C)C4CCN(Cc5cn[nH]c5)CC4)cc3)n2)ccc1F` [Example 134, 4-({4-[(4-Fluoro-3-methylphenyl)amino]-pyrimidin-2-yl}amino)-N-methyl-N-{1-[(1H-pyrazol-4-yl)methyl]piperidin-4-yl}benzenesulfonamide]: 224 °C; for `Cc1cc(Nc2ccnc(Nc3ccc(S(=O)(=O)N(C)C4CCN(Cc5cnn(C)c5)CC4)cc3)n2)ccc1F` [Example 135, 4-({4-[(4-Fluoro-3-methylphenyl)amino]-pyrimidin-2-yl}amino)-N-methyl-N-{1-[(1-methyl-1H-pyrazol-4-yl)methyl]piperidin-4-yl}benzenesulfonamide]: 125 to 150 °C. As for `Cc1cc(CN2CCC(N(C)S(=O)(=O)c3ccc(Nc4nccc(Nc5ccc(F)c(C)c5)n4)cc3)CC2)[nH]n1` [Example 136, 4-({4-[(4-Fluoro-3-methylphenyl)amino]-pyrimidin-2-yl}amino)-N-methyl-N-{1-[(5-methyl-2H-pyrazol-3-yl)methyl]piperidin-4-yl}benzenesulfonamide], the melting point came to 130 °C. Compound `Cc1cc(Nc2ccnc(Nc3ccc(S(=O)(=O)N(C)C4CCC(F)(F)CC4)cc3)n2)ccc1F` [Example 137, N-(4,4-Difluorocyclohexyl)-4-[4-(4-fluoro-3-methylphenylamino)pyrimidin-2-ylamino]-N-methyl-benzenesulfonamide] returned a melting point of 164 to 165 °C. `Cc1cc(CN2CCC(N(C)S(=O)(=O)c3ccc(Nc4nccc(Nc5ccc(F)c(C)c5)n4)cc3)CC2)no1` [Example 138, 4-({4-[(4-Fluoro-3-methylphenyl)amino]-pyrimidin-2-yl}amino)-N-methyl-N-{1-[(5-methylisoxazol-3-yl)methyl]piperidin-4-yl}benzenesulfonamide] had a melting point of 172 to 173 °C.

`Cc1cc(Nc2ccnc(Nc3ccc(S(=O)(=O)N(C)C4CCCN(C)C4)cc3)n2)ccc1F` (centres unmarked) [Example 139, 4-({4-[(4-Fluoro-3-methylphenyl)amino]-pyrimidin-2-yl}amino)-N-methyl-N-(1-methylpiperidin-3-yl)benzenesulfonamide] had a melting point of 188 °C. The result for `CN(C)C1CCC(N(C)S(=O)(=O)c2ccc(Nc3nccc(Nc4ccc(F)cc4)n3)cc2)CC1` (stereo not drawn) [Example 140, 4-({4-[(4-Fluorophenyl)amino]pyrimidin-2-yl}amino)-N-methyl-N-[4-cis(dimethylamino)cyclohexyl]-benzenesulfonamide] reads 222 °C; that for `CN(C)C1CCC(N(C)S(=O)(=O)c2ccc(Nc3nccc(Nc4ccc(F)cc4)n3)cc2)CC1` (stereo not drawn) [Example 141, 4-({4-[(4-Fluorophenyl)amino]pyrimidin-2-yl}amino)-N-methyl-N-[4-trans(dimethylamino)cyclo-hexyl]benzenesulfonamide], 218 °C. Regarding `CCNC1CCC(N(C)S(=O)(=O)c2ccc(Nc3nccc(Nc4ccc(F)cc4)n3)cc2)CC1` (stereo not drawn) [Example 142, 4-({4-[(4-Fluorophenyl)amino]pyrimidin-2-yl}amino)-N-methyl-N-[4-cis(ethylamino)cyclohexyl]-benzenesulfonamide], the melting point amounted to 188 °C. Regarding `CCNC1CCC(N(C)S(=O)(=O)c2ccc(Nc3nccc(Nc4ccc(F)cc4)n3)cc2)CC1` (stereo not drawn) [Example 143, 4-({4-[(4-Fluorophenyl)amino]pyrimidin-2-yl}amino)-N-methyl-N-[4-trans(ethylamino)cyclohexyl]-benzenesulfonamide], the melting point came out at 178 °C.
